Here are results for 18 compounds from patent US20100075907A1, “NEUROMEDIN U RECEPTOR AGONISTS AND USES THEREOF” (priority 2006, published 2010).

Non-standard residues stand in square brackets, D forms with d. Residues, ends and D or L forms follow the SMILES beside them. No end group written: not given here. hArg = N=C(N)NCCCC[C@H](N)C(=O)O; dNle = CCCC[C@@H](N)C(=O)O

Sequence of hNMUR2 (Q9GZQ4 whole entry): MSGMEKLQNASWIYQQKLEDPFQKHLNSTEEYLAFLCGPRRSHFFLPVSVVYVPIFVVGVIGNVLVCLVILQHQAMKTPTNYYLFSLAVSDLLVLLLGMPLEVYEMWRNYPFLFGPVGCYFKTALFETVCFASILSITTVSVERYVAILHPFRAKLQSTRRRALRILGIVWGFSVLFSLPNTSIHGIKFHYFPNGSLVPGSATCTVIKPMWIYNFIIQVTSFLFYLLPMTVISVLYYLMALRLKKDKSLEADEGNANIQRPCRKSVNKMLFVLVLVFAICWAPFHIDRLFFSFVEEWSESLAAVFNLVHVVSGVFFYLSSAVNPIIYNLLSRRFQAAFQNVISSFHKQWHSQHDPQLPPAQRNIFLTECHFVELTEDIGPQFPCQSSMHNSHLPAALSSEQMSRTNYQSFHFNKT

For the first experiment, the target named is hNMUR2 (Homo sapiens, UniProt Q9GZQ4). The experiment is described as follows: In vitro functional assay, HEK-hR2 cells. Type of experiment: cell-based. Also noted: expressed in transfected cells; host or cells: FLP-In CHO or HEK-293 FLP-In cells (pcDNA5); HEK-293/aeq17 lines (pcDNA3.1) were also made; % Activity: concentration or dose not given beside the values. To be noted: Table 8, HEK-hR2, functional. The text has this:
Human, mouse or rat cDNAs encoding NMUR1 or NMUR2 (as described in Howard et al. Nature 406: 70-74 (2000) were subcloned in pcDNA5 (Invitrogen) and transfected into FLP-In CHO cells and HEK-293 FLP-In cells purchased from Invitrogen (Carlsbad, Calif.) using lipofectamine (Invitrogen). The Flp-In system allows integration and expression of a particular gene of interest at a specific genomic location utilizing the Flp recombinase from yeast. The transfected cells were selected by growth in medium containing 200 μg/mL hygromycin (Invitrogen). Populations were frozen at early passage numbers, and these stocks were used for further studies. Stable clones that expressed the mRNAs were identified functionally by FLIPR as well as by RT-PCR. […] Two different rodent NMUR1 cell lines were thus generated: one with the codon as predicted from the genomic databases and another cell line with an engineered methionine (ATG) as the start codon. Additionally, stable cell lines expressing the human receptors were generated in HEK-293/aeq17 cells which stably express the aequorin gene under the CMV promoter. The human NMUR2 cDNA was cloned into pcDNA3.1 and human NMUR1 was subcloned into pIRES-puro (Clontech, Mountain View, Calif.), after transfection cells were selected in media containing G418 and either hygromycin (NMUR2) or puromycin (NMUR1).
The NMU receptors signal primarily through Gαq/11 proteins; therefore calcium mobilization assays can be utilized for functional activity.
Stable cell lines expressing human and or rodent NMUR1 or human NMUR2 receptors were plated at a density of 12,000 cells per well overnight on poly-lysine coated 384-well black-walled plates. The following day, the media was removed from the plates and the cells were subsequently loaded with Fluo-3 (Molecular Probes), a calcium sensitive dye, diluted in FLIPR buffer (1× Hank's buffered saline containing 20 mM HEPES, 0.1% BSA, 2.5 mM probenecid (Sigma) and 1.6 mM TR40). All reagents are from Invitrogen unless otherwise noted. Peptide stocks were resuspended in DMSO at a stock concentration of 2 mM and diluted in FLIPR buffer on the day of the experiment to a 4 μM working stock solution.
After a 90 minute incubation at room-temperature, cell plates were loaded onto a FLIPR (Molecular Devices) to monitor cellular fluorescence (excitation=488 nm; emission=540 nm) before and after compound/peptide addition. Eight to twelve point dose responses were tested on NMUR-expressing cell lines using FLIPR with 1 μM peptide as the highest dose. The response after peptide addition was taken as the maximum fluorescence units minus the fluorescence immediately prior to stimulation for each well. EC50 values were calculated using GraphPad Prism (San Diego, Calif.) software.
In addition to FLIPR, NMU receptor function can also be evaluated using an aequorin assay. Stable cell lines expressing the aequorin jelly fish gene can be used to report the activation of GPCRs by monitoring intracellular calcium mobilization. The objective is to identify compounds which specifically stimulate aequorin bioluminescence. Calcium-dependent luminescence is generated by the treatment of cells with the coelenterate luciferin, coelenterazine. Briefly, confluent monolayers of HEK-293/aeq 17 cells expressing hNMUR1 or hNMUR2 are “charged” with coelenterazine (Molecular Probes, Carlsbad, Calif.). Confluent T75 flasks are rinsed with media containing 300 μM glutathione and 0.1% FBS. Cells are incubated at 37° C. for one hour in 8 mL media, 0.1% FBS, 300 μM glutathione, and 20 μM coelenterazine. T75 flasks are subsequently rinsed with 6 mL ECB buffer (140 mM NaCl, 20 mM KCl, 20 mM HEPES, 5 mM glucose, 1 mM MgCl, 1 mM CaCl2, 0.1 mg/mL BSA, PH 7.3-7.4). Cells are removed from the flask in ECB buffer, pelleted, and resuspended at a density of 2×10^5 cells/mL. Agonists are added to the cells and activity is determined using a luminometer.
With `CC(C)C[C@@H](NC(=O)[C@H](Cc1ccccc1)NC(=O)[C@@H](N)Cc1ccc(O)cc1)C(=O)N[C@@H](Cc1c[nH]c2ccccc12)C(=O)N[C@@H](CCCNC(=N)N)C(=O)N1CCC[C@H]1C(=O)N[C@@H](CCCNC(=N)N)C(=O)N[C@@H](CC(N)=O)C(N)=O` [Agonist B, YF-(D-L)-WRPRN-CONH2] (H-YF[dL]WRPRN-NH2), the “% Activity” value is reported as 0% and the 50% inhibitory concentration (IC50) (as a rule, the concentration needed to halve the response being measured) was above 1000 nM.
The matching figures for `C[C@@H](NC(=O)[C@H](Cc1ccccc1)NC(=O)[C@@H](N)Cc1ccc(O)cc1)C(=O)N[C@@H](Cc1c[nH]c2ccccc12)C(=O)N[C@@H](CCCNC(=N)N)C(=O)N1CCC[C@H]1C(=O)N[C@@H](CCCNC(=N)N)C(=O)N[C@@H](CC(N)=O)C(N)=O` [Agonist D, YF-(D-A)-WRPRN-CONH2] (H-YF[dA]WRPRN-NH2; N-terminus assumed): 0% and above 1000 nM.
For the compound `CC(=O)N[C@@H](Cc1ccccc1)C(=O)N[C@H](CC(C)C)C(=O)N[C@@H](Cc1c[nH]c2ccccc12)C(=O)N[C@@H](CCCNC(=N)N)C(=O)N1CCC[C@H]1C(=O)N[C@@H](CCCNC(=N)N)C(=O)N[C@@H](CC(N)=O)C(N)=O` [Agonist E, Ac-F-(D-L)-WRPRN-CONH2] (Ac-F[dL]WRPRN-NH2), the “% Activity” value came out at 1.8% and the IC50 is above 1000 nM.
For `CC(C)C[C@@H](NC(=O)[C@H](Cc1ccccc1)NC(=O)[C@H](Cc1ccc(O)cc1)NC(=O)CNC(=O)[C@H](CCCNC(=N)N)NC(=O)[C@H](CO)NC(=O)[C@H](CCC(N)=O)NC(=O)[C@H](CO)NC(=O)[C@H](C)NC(=O)[C@H](Cc1ccccc1)NC(=O)[C@@H]1CCCN1C(=O)[C@H](CO)NC(=O)[C@H](CCC(N)=O)NC(=O)[C@H](Cc1ccccc1)NC(=O)[C@H](CCC(=O)O)NC(=O)[C@H](CCC(=O)O)NC(=O)[C@H](CC(=O)O)NC(=O)[C@@H](NC(=O)[C@H](CCCNC(=N)N)NC(=O)[C@@H](N)Cc1ccccc1)C(C)C)C(=O)N[C@@H](Cc1c[nH]c2ccccc12)C(=O)N[C@@H](CCCNC(=N)N)C(=O)N1CCC[C@H]1C(=O)N[C@@H](CCCNC(=N)N)C(=O)N[C@@H](CC(N)=O)C(N)=O` [Agonist H] (H-FRVDEEFQSPFASQSRGYF[dL]WRPRN-NH2; N-terminus assumed), the “% Activity” value is on record as 0% and the IC50 is above 1000 nM.
With “Ac-FFRPRN-NH2 [Agonist F, Ac-FFRPRN-CONH2]”, the “% Activity” value was 96% and the IC50 was 870 nM.
In the same order, the values of “H-FRVDEEFQSPFASQSRGYFWRPRN-NH2 [Agonist G]” are 14% and above 1000 nM.
The matching figures for H-YFGWRPRN-NH2 [Agonist C]: 0% and above 1000 nM.

Still in this experiment, the particulars now being: Table 9, HEK-hR2, functional.
As for `CC(C)C[C@H](NC(=O)[C@H](Cc1c[nH]c2ccccc12)NC(=O)[C@@H](N)Cc1ccccc1)C(=O)N[C@@H](Cc1ccccc1)C(=O)N[C@@H](CCCNC(=N)N)C(=O)N1CCC[C@H]1C(=O)N[C@@H](CCCCNC(=N)N)C(=O)N[C@@H](CC(N)=O)C(N)=O` [Agonist I, FWLFRP-(Harg)-N-CONH2] (H-FWLFRP[hArg]N-NH2), the “% Activity” value worked out at 99%.
Still for that read-out and setting: the same measure for `CC(C)C[C@H](NC(=O)[C@H](Cc1c[nH]c2ccccc12)NC(=O)[C@@H](N)Cc1ccccc1)C(=O)N[C@@H](Cc1ccccc1)C(=O)N[C@@H](CCCNC(=N)N)C(=O)N[C@@H](C)C(=O)N[C@@H](CCCCNC(=N)N)C(=O)N[C@@H](CC(N)=O)C(N)=O` [Agonist J, FWLFRA-(Harg)-N-CONH2] (H-FWLFRA[hArg]N-NH2): 59%.
On to `CCCC[C@@H](NC(=O)[C@H](CCCNC(=N)N)NC(=O)[C@H](C)NC(=O)[C@H](CCCNC(=N)N)NC(=O)[C@H](Cc1ccccc1)NC(=O)[C@H](CC(C)C)NC(=O)[C@H](Cc1ccccc1)NC(=O)[C@@H](N)Cc1c[nH]c2ccccc12)C(N)=O` [Agonist K, WFLFRAR-(D-Nle)-CONH2] (H-WFLFRAR[dNle]-NH2), for which the “% Activity” value was found to be 100% and the EC50 (usually the concentration giving half of the maximal effect) was determined as 2 nM.
On to `CC(C)C[C@H](NC(=O)[C@H](Cc1c[nH]c2ccccc12)NC(=O)[C@H](Cc1ccccc1)NC(=O)CNC(=O)[C@H](CCCNC(=N)N)NC(=O)[C@H](CO)NC(=O)[C@H](CCC(N)=O)NC(=O)[C@H](CO)NC(=O)[C@H](C)NC(=O)[C@H](Cc1ccccc1)NC(=O)[C@@H]1CCCN1C(=O)[C@H](CO)NC(=O)[C@H](CCC(N)=O)NC(=O)[C@H](Cc1ccccc1)NC(=O)[C@H](CCC(=O)O)NC(=O)[C@H](CCC(=O)O)NC(=O)[C@H](CC(=O)O)NC(=O)[C@@H](NC(=O)[C@H](CCCNC(=N)N)NC(=O)[C@@H](N)Cc1ccccc1)C(C)C)C(=O)N[C@@H](Cc1ccccc1)C(=O)N[C@@H](CCCNC(=N)N)C(=O)N1CCC[C@H]1C(=O)N[C@@H](CCCCNC(=N)N)C(=O)N[C@@H](CC(N)=O)C(N)=O` [Agonist O] (H-FRVDEEFQSPFASQSRGFWLFRP[hArg]N-NH2; N-terminus assumed), for which the “% Activity” value is given as 67% and the midpoint of the response, the EC50, lay at 16 nM.
With `CC(C)C[C@H](NC(=O)[C@H](Cc1c[nH]c2ccccc12)NC(=O)[C@H](Cc1ccccc1)NC(=O)CNC(=O)[C@H](CCCNC(=N)N)NC(=O)[C@H](CO)NC(=O)[C@H](CCC(N)=O)NC(=O)[C@H](CO)NC(=O)[C@H](C)NC(=O)[C@H](Cc1ccccc1)NC(=O)[C@@H]1CCCN1C(=O)[C@H](CO)NC(=O)[C@H](CCC(N)=O)NC(=O)[C@H](Cc1ccccc1)NC(=O)[C@H](CCC(=O)O)NC(=O)[C@H](CCC(=O)O)NC(=O)[C@H](CC(=O)O)NC(=O)[C@@H](NC(=O)[C@H](CCCNC(=N)N)NC(=O)[C@@H](N)Cc1ccccc1)C(C)C)C(=O)N[C@@H](Cc1ccccc1)C(=O)N[C@@H](CCCNC(=N)N)C(=O)N[C@@H](C)C(=O)N[C@@H](CCCCNC(=N)N)C(=O)N[C@@H](CC(N)=O)C(N)=O` [Agonist P] (H-FRVDEEFQSPFASQSRGFWLFRA[hArg]N-NH2; N-terminus assumed), the “% Activity” value was found to be 100%.
On the same count and under the same terms, the same measure for `CCCC[C@@H](NC(=O)[C@H](CCCNC(=N)N)NC(=O)[C@@H]1CCCN1C(=O)[C@H](CCCNC(=N)N)NC(=O)[C@H](Cc1ccccc1)NC(=O)[C@H](CC(C)C)NC(=O)[C@H](Cc1c[nH]c2ccccc12)NC(=O)[C@H](Cc1ccccc1)NC(=O)CNC(=O)[C@H](CCCNC(=N)N)NC(=O)[C@H](CO)NC(=O)[C@H](CCC(N)=O)NC(=O)[C@H](CO)NC(=O)[C@H](C)NC(=O)[C@H](Cc1ccccc1)NC(=O)[C@@H]1CCCN1C(=O)[C@H](CO)NC(=O)[C@H](CCC(N)=O)NC(=O)[C@H](Cc1ccccc1)NC(=O)[C@H](CCC(=O)O)NC(=O)[C@H](CCC(=O)O)NC(=O)[C@H](CC(=O)O)NC(=O)[C@@H](NC(=O)[C@H](CCCNC(=N)N)NC(=O)[C@@H](N)Cc1ccccc1)C(C)C)C(N)=O` [Agonist Q] (H-FRVDEEFQSPFASQSRGFWLFRPR[dNle]-NH2): 97%.
On to `CC(C)C[C@H](NC(=O)[C@H](Cc1ccccc1)NC(=O)[C@@H](N)Cc1ccc(O)cc1)C(=O)N[C@@H](Cc1ccccc1)C(=O)N[C@@H](CCCNC(=N)N)C(=O)N1CCC[C@H]1C(=O)N[C@@H](CCCNC(=N)N)C(=O)N[C@@H](CC(N)=O)C(N)=O` [NMU-8, reference compound], for which the “% Activity” value is given as 104%.
Still for that read-out and setting: next, FALFRPRN-NH2 [Agonist N]: 100%.
For “H-FRVDEEFQSPFASQSRGYFLFRPRN-NH2 [hNMU-25, reference compound]”, the “% Activity” value was found to be 100% and it took 1.5 nM to reach a half-maximal effect (EC50).
H-FWLFRARN-NH2 [Agonist L]: the “% Activity” value is 100%.
For the compound WALFRARN-NH2 [Agonist M], the “% Activity” value was 93% and the EC50 was 33 nM.
